The results in this text go back to publication PMC5315023 (Nature, 2016).

This test has as its system MEFs expressing Mfn1 or Mfn2 in any combination. The test can be described thus: Mitochondrial aspect ratio/morphology with adenovirally expressed minipeptides. To be noted: adenoviral expression, MOI of 100, MEFs. It is filed as cell-based, mouse.

With RQVSTAMAEEIRRLSVLVDDY [Adeno428-448], the “Effect on mitochondrial fusion / morphology” value is on record as “did not affect mitochondrial fusion”.
